Experiment [1] in a line: DSC doublet peak area (α-structure) of hair after heat cycles. Particulars: for Doublet Peak Area: bleached/permed hair after 12 heat cycles, 0.06 M solutions. As to the method: Normal blonde hair was bleached with Clairol Basic White Bleach (40 volume H2O2) for 20 min at standard room temperature and humidity. The bleached swatches were rinsed with tap water, and soaked in an excess of deionized water for 2 hours. The swatches were air-dried and equilibrated for 48 hours prior to further treatment. Some of the bleached swatches were subsequently “permed” using a Reforming Lotion (10% TGA, pH 8.8, 20 minutes) and then neutralized with 2% H2O2, pH 3 (5 minutes). The bleached/permed swatches were rinsed with tap water, and soaked in an excess of deionized water for 2 hours. The swatches were air-dried and equilibrated for 48 hours prior to further treatment. The swatches that were heat treated were treated with 0.06M solutions of hexoses and pentoses for 10 min at 45° C. and then were heated for 12 cycles. The swatches were rinsed after the heat application. In the DSC tests, finely cut hair (4-5 mg) was crimped in an aluminum pan that was punctured prior to each run. The samples were heated from 25° C. to 300° C., at a scanning rate of 20° C./min, with 5 runs per treatment. The results were averaged. Normal blonde hair was divided in two batches. The hair from the first batch was bleached with Clairol Basic White Bleach, 40 volume H2O2, for 20 min at room temperature and humidity. The hair from the second batch was first bleached as above, and then permed: Reforming lotion-10% Thioglycolic acid, pH 8.8, 20 min; neutralizer-2% hydrogen peroxide, 5 min. The oxidatively damaged hair was equilibrated for 24 hours prior to further testing. Both the bleached and the bleached/permed hair were subjected to heat treatment, as in Example 2. The heat treatment experiment involved 12 heat cycles including application of sugar or control solution before each heat application, and rinsing after the heat application. Deionized water was used as a control treatment. After the heat experiment, the hair was rinsed in water, air-dried, and equilibrated for 24 h in the humidity chamber at 25° C. and 50% RH prior to further testing. The effect of the hexoses vs. pentoses on the dry tensile strength (INSTRON) and the alpha-structure (doublet peak area, DSC) was tested on the bleached hair (Table 13). The effect of a hexose (D-glucose) vs. a pentose (D-Xylose) on wet tensile strength (DIA-STRON) was tested both on the bleached and the bleached/permed hair (Table 14). Application of 0.06M solutions of pentoses protected the bleached and the bleached/permed hair against thermal damage (α-structure; wet and dry tensile strength).

The nature of experiment [2]: Wet tensile strength (Dia-Stron) after heat cycles. To be noted: for Work 25% (Wet): 0.06 M solutions; for Work 25% (Wet) / Extension-Break / Work 25% / Work-Break / Young's Modulus: n = 100 fibers; for Extension-Break / Work 25% / Work-Break / Young's Modulus: 0.06 M, DIA-STRON; for Dia-Stron, wet fibers Extension: 1.0% solution, n = 100. How it is done: Normal blonde hair was bleached with Clairol Basic White Bleach (40 volume H2O2) for 20 min at standard room temperature and humidity. The bleached swatches were rinsed with tap water, and soaked in an excess of deionized water for 2 hours. The swatches were air-dried and equilibrated for 48 hours prior to further treatment. Some of the bleached swatches were subsequently “permed” using a Reforming Lotion (10% TGA, pH 8.8, 20 minutes) and then neutralized with 2% H2O2, pH 3 (5 minutes). The bleached/permed swatches were rinsed with tap water, and soaked in an excess of deionized water for 2 hours. The swatches were air-dried and equilibrated for 48 hours prior to further treatment. The swatches that were heat treated were treated with 0.06M solutions of hexoses and pentoses for 10 min at 45° C. and then were heated for 12 cycles. The swatches were rinsed after the heat application. Tensile strength was determined using both the Instron (50 dry fibers per tests) and the Dia-Stron (100 wet fibers per test), with the stretching rate of 100 mm/min. The following parameters were determined: Young's Modulus (N/m^2), Work to stretch 25% (J/m^2); Extension to Break (degree of elongation) (%); Work to Break (J/m^2). Both the bleached and the bleached/permed hair were subjected to heat treatment, as in Example 2. The heat treatment experiment involved 12 heat cycles including application of sugar or control solution before each heat application, and rinsing after the heat application. Deionized water was used as a control treatment. After the heat experiment, the hair was rinsed in water, air-dried, and equilibrated for 24 h in the humidity chamber at 25° C. and 50% RH prior to further testing. The effect of the hexoses vs. pentoses on the dry tensile strength (INSTRON) and the alpha-structure (doublet peak area, DSC) was tested on the bleached hair (Table 13). The effect of a hexose (D-glucose) vs. a pentose (D-Xylose) on wet tensile strength (DIA-STRON) was tested both on the bleached and the bleached/permed hair (Table 14). Application of 0.06M solutions of pentoses protected the bleached and the bleached/permed hair against thermal damage (α-structure; wet and dry tensile strength).

Experiment [3] in a line: DSC double peak area of relaxed hair after treatment. Particulars: for Double Peak Area: relaxed ethnic hair, 10 min at 45° C. As to the method:
(§1) Kinky hair was relaxed using 2.5% sodium hydroxide (20 min at room temperature). The hair was thoroughly rinsed with water, and a treatment solution was applied for 10 min at 45° C. Each of the following treatment solutions were tested: a) 1% D-xylose, b) 5% D-xylose, and c) deionized water-control treatment.

Experiment [4] can be described thus: Hair chemical composition (lysine, arginine) after heat cycles. Particulars: 1.0% solution. As to the method:
The repairing of the damaged hair by pentoses is further supported by changes in the hair chemical composition that are observed when the hair was treated with pentose solutions, followed by heat application. Specifically, the amounts of lysine and arginine decreased, as compared to the hair treated with water (Table 19). The change in the lysine/arginine content, in conjunction with the decreased extension to break, appears to indicate that some cross-linking processes occur when the hair is heated in the presence of pentoses.

A short description of experiment [5]: Tensile strength (work to break) of relaxed hair after treatment. To be noted: relaxed ethnic hair, 10 min at 45° C. As to the method: as §1
A short description of experiment [6]: Cuticle loss estimated by UV transmittance of suspension. To be noted: relaxed ethnic hair, greater transmittance = less cuticle loss. How it is done:
as §1
The cuticle loss was estimated as follows. The relaxed/treated hair (0.5 g) was immersed in 2.5 mL deionized water for 15 min at 45° C. The hair was removed and UV transmittance of the remaining cloudy suspension was determined. The greater the transmittance, the less material is suspended, and therefore, the less damage to the hair.

[7] abbreviates: bleached hair after 12 heat cycles.
The mark [8] stands for this setting: bleached/permed hair after 12 heat cycles.
[9] abbreviates: wet bleached hair (blonde hair in the source) after 12 heat cycles.
The mark [10] stands for this setting: wet bleached/permed hair after 12 heat cycles.
[11] abbreviates: bleached hair after 12 cycles at 130° C.
Setting [12] is: bleached/permed hair after 12 cycles at 130° C.

Turning to `O=C[C@H](O)[C@@H](O)[C@H](O)[C@H](O)CO` [D-Glucose, reference compound], the “Doublet Peak Area” value in experiment [1] is recorded as 4.96 +/− 0.32 J/g hair. For the same compound, in experiment [2] (Example 2, 12 heat cycles), the “protection against heat treatment based on tensile properties and DSC, in words” value was “little or no protection”. Further, the “Work 25% (Wet)” value in experiment [2] (setting [7]) is on record as 187.0 +/− 74.8 J/m^2. Besides, in experiment [2] (setting [8]), the “Work 25% (Wet)” value is reported as 155.0 +/− 47.5 J/m^2. For the same compound, in experiment [2] (setting [9]), the Extension-Break is given as 64.20 +/− 10.4%, the “Work 25%” value is 187.0 +/− 74.8 J/m^2, the Work-Break was 1,130 +/− 453 J/m^2 and the “Young's Modulus” value is reported as 397.0 +/− 106.0 MN/m^2. Besides, in experiment [2] (setting [10]), the Extension-Break is listed as 63.50 +/− 7.65%, the “Work 25%” value is given as 155.0 +/− 47.5 J/m^2, the Work-Break was 979.0 +/− 300 J/m^2 and the “Young's Modulus” value was 136.0 +/− 92.5 MN/m^2.

Consider `O=C[C@H](O)[C@@H](O)[C@H](O)CO` [D-Xylose], for which the “Double Peak Area” value was 14.10 +/− 2.52 J/g hair in experiment [3] (1% solution) and 21.35 +/− 19.02 J/g hair in experiment [3] (5% solution). Also, in experiment [3] (relaxed kinky hair), the “protection of relaxed hair (α-structure, tensile strength, cuticle loss) compared to water, in words” value is “protected”. Also, the Arginine in experiment [4] (setting [11]) was 8.0 +/− 0.1 wt %; in experiment [4] (setting [12]), 7.2 +/− 0.1 wt %. The Lysine in experiment [4] (setting [12]) is recorded as 1.6 +/− 0.1 wt %. Further, the “Work to Break” value in experiment [5] (1% solution) is on record as 749 +/− 151 J/m^2; in experiment [5] (5% solution), 1,200 +/− 222 J/m^2. The “Transmittance, at 600 nm” value in experiment [6] (1% solution) is listed as 0.9545; in experiment [6] (5% solution), 0.9339. For the same compound, the “Doublet Peak Area” value in experiment [1] is 9.78 +/− 1.48 J/g hair. The Normalized area in experiment [1] (bleached/permed hair, 12 heat cycles, 0.06 M) is on record as 9.78 +/− 1.48 J/g hair. Besides, in experiment [2] (bleached and bleached/permed hair, 1% solution prior to heat application), the “extension to break compared to non-treated or water-treated hair, in words” value is listed as “significantly shorter”. For the same compound, the entries for the “Dia-Stron, wet fibers Extension” value in experiment [2] (setting [11]) and in experiment [2] (setting [12]) were 52.80 +/− 9.29% and 54.30 +/− 4.70%, respectively. Besides, the “Work 25% (Wet)” value was 432.0 +/− 137.0 J/m^2 in experiment [2] (setting [7]) and 199.0 +/− 74.2 J/m^2 in experiment [2] (setting [8]). Further, the “protection against heat (wet tensile properties) compared to water and 1.2% D-glucose, in words” value in experiment [2] (wet bleached and bleached/permed hair, 12 heat cycles, 1% solution) is reported as “statistically significant protection against heat”. Also, the Extension-Break in experiment [2] (setting [9]) was 52.80 +/− 9.29%; in experiment [2] (setting [10]), 54.30 +/− 4.70%. Besides, the “Work 25%” value in experiment [2] (setting [9]) is on record as 432.0 +/− 137.0 J/m^2; in experiment [2] (setting [10]), 199.0 +/− 74.2 J/m^2. In addition, the Work-Break in experiment [2] (setting [9]) was 1,600 +/− 526 J/m^2; in experiment [2] (setting [10]), 620.0 +/− 231.0 J/m^2. Besides, the “Young's Modulus” value in experiment [2] (setting [9]) was 434.0 +/− 99.1 MN/m^2; in experiment [2] (setting [10]) it was 170.0 +/− 88.6 MN/m^2.

The values are drawn from patent publication US7815900B1, “Use of C3-C5 monosaccharides to protect keratinous fibers” (L'Oréal S.A., priority 2000, dated 2010).
